In US7153849B2, “Antidepressant arylpiperazine derivatives of hetrocycle-fused benzodioxans” (Wyeth, priority 2002, dated 2006):
Structures can show the parent of a compound that is named as a salt.

What was measured:
serotonin transporter = molecular target: T1, serotonin transporter (Rattus norvegicus, UniProt P31652); assay: 3H-paroxetine displacement from rat frontal cortical membranes (serotonin transporter affinity); type: binding; settings: for Ki: 3H-paroxetine, male rat frontal cortical membranes, read-out: 5-HT Transporter Affinity Ki
T1 construct: displace ^3H-paroxetine from male rat frontal cortical membranes; from tissue; host or cells: male rat frontal cortical membranes

human 5HT1A receptors = molecular target: T2, human 5HT1A receptors (Homo sapiens, UniProt P08908); assay: [3H] 8-OH-DPAT displacement from 5HT1A receptor in stably transfected CHO cells; type: binding; settings: CHO cells with human 5HT1A; for Ki: read-out: 5HT1A Receptor Affinity Ki
T2 construct: expressed in transfected cells; host or cells: CHO cells
T2 sequence (P08908 1-422): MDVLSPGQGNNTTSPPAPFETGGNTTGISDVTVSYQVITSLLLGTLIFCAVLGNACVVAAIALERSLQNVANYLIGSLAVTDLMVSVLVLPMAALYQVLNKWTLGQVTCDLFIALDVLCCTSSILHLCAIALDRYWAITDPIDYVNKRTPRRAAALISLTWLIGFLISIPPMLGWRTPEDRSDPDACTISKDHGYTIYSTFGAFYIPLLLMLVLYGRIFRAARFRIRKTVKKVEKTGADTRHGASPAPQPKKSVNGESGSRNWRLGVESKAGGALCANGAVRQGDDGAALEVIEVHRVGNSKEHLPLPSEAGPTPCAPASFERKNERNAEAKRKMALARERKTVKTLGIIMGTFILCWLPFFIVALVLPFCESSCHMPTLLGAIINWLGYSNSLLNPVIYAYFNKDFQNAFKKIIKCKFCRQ
From the text: High affinity for the serotonin 5HT1A receptor was established by testing the claimed compound's ability to displace [^3H] 8-OH-DPAT (dipropylamino-tetralin) from the 5HT1A serotonin receptor following a modification of the procedure of Hall et al., J. Neurochem. 44, 1685 (1985) which utilizes CHO cells stably transfected with human 5HT1A receptors.

[1] = molecular target: T3, cloned human 5HT1A receptors (Homo sapiens, UniProt P08908); assay: 35S-GTPγS binding assay, 5HT1A antagonist activity; type: biochemical; settings: for 5HT1A Function Imax: maximum inhibitory effect, vs 8-OH-DPAT, unit assumed; for IC50: reversal of 8-OH-DPAT (antagonist), read-out: 5HT1A Function IC50; for 5HT1A Function Emax / EC50: increase in binding (agonist); for EC50: read-out: 5HT1A Function EC50
T3 construct: expressed in transfected cells
T3 sequence (P08908 1-422): T2 sequence (P08908 1-422)
Description: Antagonist activity at 5HT1A receptors was established by using a ^35S-GTPγS binding assay similar to that used by Lazareno and Birdsall (Br. J. Pharmacol. 109:1120, 1993), in which the test compound's ability to affect the binding of ^35S-GTPγS to membranes containing cloned human 5HT1A receptors was determined. Agonists produce an increase in binding whereas antagonists produce no increase but rather reverse the effects of the standard agonist 8-OH-DPAT. The test compound's maximum inhibitory effect is represented as the Imax, while its potency is defined by the IC50.

T1 sequence (P31652 whole entry): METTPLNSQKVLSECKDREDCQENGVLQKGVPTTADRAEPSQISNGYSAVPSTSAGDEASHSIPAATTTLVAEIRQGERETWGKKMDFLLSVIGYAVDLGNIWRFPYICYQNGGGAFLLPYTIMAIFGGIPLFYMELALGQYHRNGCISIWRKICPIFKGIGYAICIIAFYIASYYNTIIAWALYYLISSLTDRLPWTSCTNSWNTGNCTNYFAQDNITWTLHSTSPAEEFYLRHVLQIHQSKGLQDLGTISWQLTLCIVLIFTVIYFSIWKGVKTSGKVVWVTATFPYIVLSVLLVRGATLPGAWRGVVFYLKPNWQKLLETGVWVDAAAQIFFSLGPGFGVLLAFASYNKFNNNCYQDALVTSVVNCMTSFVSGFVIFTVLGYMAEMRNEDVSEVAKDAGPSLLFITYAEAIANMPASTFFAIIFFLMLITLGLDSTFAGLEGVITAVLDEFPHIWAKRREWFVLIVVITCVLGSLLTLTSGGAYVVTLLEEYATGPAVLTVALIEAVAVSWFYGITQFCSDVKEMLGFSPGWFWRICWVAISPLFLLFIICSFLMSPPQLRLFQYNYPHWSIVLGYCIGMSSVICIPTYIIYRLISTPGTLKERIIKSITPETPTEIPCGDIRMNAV

Row | Ki (serotonin transporter) | Ki (human 5HT1A receptors) | IC50 [1] | SMILES | 5HT1A Function Imax [1] | also measured
1 |  |  |  | Cc1ccc2c3c(ccc2n1)OC[C@H](CN1CCN(c2ccc(Cl)c(Cl)c2)CC1)O3 (as salt: fumarate) [Example 3, (2S)-2-{[4-(3,4-dichlorophenyl)piperazin-1-yl]methyl}-8-methyl-2,3-dihydro[1,4]dioxine[2,3-f]quinoline] |  | melting point: 140 to 144 °C
2 |  |  |  | Cc1ccc2c3c(ccc2n1)OC[C@H](CN1CCN(c2cccc4c2OCCO4)CC1)O3 (as salt: fumarate) [Example 7, (2S)-2-{[4-(dihydrobenzo[1,4]dioxin-5-yl)piperazin-1-yl]methyl}-8-methyl-2,3-dihydro[1,4]dioxino[2,3-f]quinoline] |  | melting point: 154 to 155 °C
3 |  |  |  | Cc1ccc2c3c(ccc2n1)OC[C@H](CN1CCN(c2ccc4ccccc4n2)CC1)O3 (as salt: hydrochloride) [Example 12, (2S)-8-methyl-2-[(4-quinolin-2-ylpiprazin-1-yl)methyl]-2,3-dihydro[1,4]dioxino[2,3-f]quinoline] |  | melting point: 237 to 243 °C
4 |  |  |  | Cc1ccc2c3c(ccc2n1)OC[C@H](CN1CCN(c2ccc4cc([N+](=O)[O-])ccc4n2)CC1)O3 (as salt: salt) [Example 13] |  | melting point: 200 °C (dec.)
5 | 565 nM | 22.9 nM | 632 nM | Cc1ccc2c3c(ccc2n1)OC[C@H](CN1CCN(c2ccc(Cl)cc2)CC1)O3 [Example 2, (2S)-2-{[4-(4-chlorophenyl)piperazin-1-yl]methyl}-8-methyl-2,3-dihydro[1,4]dioxino[2,3-f]quinoline] | 26% | 
6 | 76 nM | 1050 nM |  | Cc1ccc2c3c(ccc2n1)OC[C@H](CN1CCN(c2ccc(Cl)c(Cl)c2)CC1)O3 [Example 3, (2S)-2-{[4-(3,4-dichlorophenyl)piperazin-1-yl]methyl}-8-methyl-2,3-dihydro[1,4]dioxine[2,3-f]quinoline] |  | 
7 | 1.2 nM |  | 557 nM | Cc1ccc2c3c(ccc2n1)OC[C@H](CN1CCN(c2cccc4c2OCCO4)CC1)O3 [Example 7, (2S)-2-{[4-(dihydrobenzo[1,4]dioxin-5-yl)piperazin-1-yl]methyl}-8-methyl-2,3-dihydro[1,4]dioxino[2,3-f]quinoline] |  | 5HT1A Receptor Affinity, % @ 1 μM (human 5HT1A receptors; @ 1 μM): 91% @ 1 μM
8 | 13.5 nM | 3.7 nM | 82.5 nM | Cc1ccc2c3c(ccc2n1)OC[C@H](CN1CCN(c2ccc4cc(C#N)ccc4n2)CC1)O3 [Example 15, 2-(4-{[(2S)-8-methyl-2,3-dihydro[1,4]dioxino[2,3-f]quinolin-2-yl]methyl}piperazin-1-yl}quinoline-6-carbonitrile] |  | 
9 | 266 nM | 28.5 nM |  | COc1cccc2c(N3CCN(C[C@H]4COc5ccc6nc(C)ccc6c5O4)CC3)coc12 [Example 16, (2S)-2-{[4-(7-methoxy-1-benzofuran-3-yl)-1-piperazinyl]methyl}-8-methyl-2,3-dihydro[1,4]dioxino[2,3-f]quinoline] |  | melting point: 56 °C
10 | 74 nM | 718 nM |  | Cc1ccc2c3c(ccc2n1)OC[C@H](CN1CCN(c2coc4ccc(F)cc24)CC1)O3 [Example 17, (2S)-2-{[4-(5-fluoro-1-benzofuran-3-yl)-1-piperazinyl]methyl}-8-methyl-2,3-dihydro[1,4]dioxino[2,3-f]quinoline] |  | 
11 | 16 nM | 40.3 nM |  | Cc1ccc2c3c(ccc2n1)OC[C@H](CN1CCN(c2coc4ccccc24)CC1)O3 [Example 18, (2S)-2-{[4-(1-benzofuran-3-yl)-1-piperazinyl]methyl}-8-methyl-2,3-dihydro[1,4]dioxino[2,3-f]quinoline] |  | 
12 | 19.8 nM | 53.2 nM | 4540 nM | Cc1ccc2c3c(ccc2n1)OC[C@H](CN1CCN(c2ccc4ccccc4c2)CC1)O3 [Example 22, (2S)-8-methyl-2-{[4-(2-naphthyl)piperazin-1-yl]methyl}-2,3-dihydro[1,4]dioxino[2,3-f]quinoline] | 76% | 
13 | 310 nM | 7.27 nM | 57 nM | N#Cc1ccc2nc(N3CCN(C[C@H]4COc5ccc6ncccc6c5O4)CC3)ccc2c1 [Example 24, (2S)-2-[4-(2,3-Dihydro-[1,4]dioxino[2,3-f]quinolin-2-ylmethyl)-piperazin-1-yl]-quinoline-6-carbonitrile] | 58% | 
14 | 67 nM | 4.74 nM |  | CCc1ccc2c3c(ccc2n1)OC[C@H](CN1CCN(c2ccc4cc(C#N)ccc4n2)CC1)O3 [Example 25, (2S)-2-[4-(8-Ethyl-2,3-dihydro-[1,4]dioxino[2,3-f]quinolin-2-ylmethyl)-piperazin-1-yl]-quinoline-6-carbonitrile] |  | 5HT1A Function Emax [1]: 67; EC50 [1]: 1140 nM
15 | 407 nM | 25.1 nM |  | Cc1nc2ccc3c(c2o1)O[C@@H](CN1CCN(c2ccc4cc(C#N)ccc4n2)CC1)CO3 [Example 26, (2S)-2-[4-(2-Methyl-7,8-dihydro-1,6,9-trioxa-3-aza-cyclopenta[a]naphthalen-8-ylmethyl)-piperazin-1-yl]-quinoline-6-carbonitrile] |  | 5HT1A Function Emax [1]: 64; EC50 [1]: 700 nM
16 | 200 nM | 1.26 nM | 1320 nM | Cc1ccc2c3c(ccc2n1)OC[C@H](CN1CCNCC1)O3 [Example 29, 8-Methyl-2-piperazin-1-ylmethyl-2,3-dihydro-[1,4]dioxino[2,3-f]quinoline] | 100% | 
17 |  |  |  | COc1ccc2nc(N3CCN(C[C@H]4COc5ccc6nc(C)ccc6c5O4)CC3)ccc2c1 [Example 30, (2S)-2-{[4-(6-methoxyquinolin-2-yl)piperazin-1-yl]methyl]-8-methyl-2,3-dihydro[1,4]dioxino[2,3-f]quinoline] |  | melting point: 158 to 160 °C
18 | 7.3 nM | 1.75 nM | 316 nM | COc1ccc2nc(N3CCCN(C[C@H]4COc5ccc6nc(C)ccc6c5O4)CC3)ccc2c1 [Example 33, (2S)-2-{[4-(6-methoxyquinolin-2-yl)-1,4-diazepan-1-yl]methyl]-8-methyl-2,3-dihydro[1,4]dioxino[2,3-f]quinoline] | 92% | 

Row | SMILES | Ki (serotonin transporter) | Ki (human 5HT1A receptors) | IC50 [1] | 5HT1A Function Imax [1] | also measured
19 | Cc1ccc2c3c(ccc2n1)OC[C@H](CN1CCN(c2ccc4ccccc4n2)CC1)O3 [Example 12, (2S)-8-methyl-2-[(4-quinolin-2-ylpiprazin-1-yl)methyl]-2,3-dihydro[1,4]dioxino[2,3-f]quinoline] | 48 nM | 47.3 nM | 3000 nM | 100% | 
20 | Cc1ccc2c3c(ccc2n1)OC[C@H](CN1CCN(c2ccc4cc([N+](=O)[O-])ccc4n2)CC1)O3 [Example 13] | 0.25 nM | 20 nM | 326 nM | 70% | 
21 | Cc1ccc2c3c(ccc2n1)OC[C@H](CN1CCN(c2ccc4cc(Cl)ccc4n2)CC1)O3 [Example 14] | 0.65 nM | 214 nM | 74.7 nM | 58% | 
22 | Cc1ccc2c3c(ccc2n1)OC[C@H](CN1CCN(c2ccc4cc(C#N)ccc4n2)C[C@H]1C)O3 [Example 20] | 688 nM | 2.85 nM | 82.8 nM | 92% | 
23 | Cc1ccc2c3c(ccc2n1)OC[C@H](CN1CCN(c2ccc4cc(C(N)=O)ccc4n2)CC1)O3 [Example 23] |  | 7.21 nM | 129 nM | 71% | 5-HT Transporter Affinity, % @ 1 μM (serotonin transporter): 56% @ 1 μM
